What follows are compounds tested on human σ1 receptor and human μ-opioid receptor (assay: Human σ1 receptor radioligand assay and human μ-opioid receptor radioligand assay (μ and σ1 dual binding)). Details: not given.
Set-up: key to μ and σ1 dual binding: +: Both Ki-μ and Ki-σ1>=500 nM; ++: One Ki<500 nM while the other Ki is >=500 nM; +++: Both Ki-μ and Ki-σ1<500 nM; ++++: Both Ki-μ and Ki-σ1<100 nM
In the case of `CC(=O)N1CCc2ccccc2C12CCN(CC1CCOCC1)CC2` [Example 9, 1-(1′-((tetrahydro-2H-pyran-4-yl)methyl)-3,4-dihydro-2H-spiro[isoquinoline-1,4'-piperidine]-2-yl)ethanone], the “μ and σ1 dual binding” value is reported as “++”.
With `CC(=O)N1CCc2ccccc2C12CCN(CCOC(C)C)CC2` [Example 11, 1-(1′-(2-isopropoxyethyl)-3,4-dihydro-2H-spiro[isoquinoline-1,4′-piperidine]-2-yl)ethanone] the Ki was less than 500 nM.
In the case of `CC(=O)N1CCc2ccccc2C12CCN(CC(C)C)CC2` [Example 12, 1-(1′-isobutyl-3,4-dihydro-2H-spiro[isoquinoline-1,4′-piperidine]-2-yl)ethanone], the “μ and σ1 dual binding” value is reported as “++”.
`CC(=O)N1CCc2ccccc2C12CCN(CC1CCCCC1)CC2` [Example 13, 1-(1′-(cyclohexylmethyl)-3,4-dihydro-2H-spiro[isoquinoline-1,4′-piperidine]-2-yl)ethanone] showed a Ki of less than 500 nM.
`CC(=O)N1CCc2ccccc2C12CCN(CCC(C)C)CC2` [Example 15, 1-(1′-isopentyl-3,4-dihydro-2H-spiro[isoquinoline-1,4′-piperidine]-2-yl)ethanone] was tested, and the Ki was less than 500 nM.
With `CC(=O)N1CCc2ccccc2C12CCN(Cc1ccccn1)CC2` [Example 17, 1-(1′-(pyridin-2-ylmethyl)-3,4-dihydro-2H-spiro[isoquinoline-1,4′-piperidine]-2-yl)ethanone] the “μ and σ1 dual binding” value was “++”.
In the case of `CC(=O)N1CCc2ccccc2C12CCN(CCOc1ccccc1)CC2` [Example 20, 1-(1′-(2-phenoxyethyl)-3,4-dihydro-2H-spiro[isoquinoline-1,4′-piperidine]-2-yl)ethanone], the “μ and σ1 dual binding” value is reported as “++”.
In the case of `CCOCCN1CCC2(CC1)c1ccccc1CCN2C(C)=O` [Example 24, 1-(1′-(2-ethoxyethyl)-3,4-dihydro-2H-spiro[isoquinoline-1,4′-piperidine]-2-yl)ethanone], the “μ and σ1 dual binding” value is reported as “++”.
`CC(=O)N1CCc2ccccc2C12CCN(CCOCC1CC1)CC2` [Example 30, 1-(1′-(2-(cyclopropylmethoxy)ethyl)-3,4-dihydro-2H-spiro[isoquinoline-1,4′-piperidine]-2-yl)ethanone] showed a Ki of less than 500 nM.
For `CC(=O)N1CCc2ccccc2C12CCN(CCOCC(C)C)CC2` [Example 31], the Ki was less than 500 nM.
`CC(=O)N1CCc2ccccc2C12CCN(CCOCc1ccccc1)CC2` [Example 32, 1-(1′-(2-(benzyloxy)ethyl)-3,4-dihydro-2H-spiro[isoquinoline-1,4′-piperidine]-2-yl)ethanone] was tested, and the “μ and σ1 dual binding” value was “++”.
`CC(=O)N1CCc2ccccc2C12CCN(CCC(=O)N(C)c1ccccc1)CC2` [Example 35, 3-(2-acetyl-3,4-dihydro-2H-spiro[isoquinoline-1,4′-piperidine]-1′-yl)-N-methyl-N-phenylpropanamide] was tested, and the “μ and σ1 dual binding” value was “++”.
With `CC(=O)N1CCc2ccccc2C12CCN(CCOc1ccccn1)CC2` [Example 42, 1-(1′-(2-(Pyridin-2-yloxy)ethyl)-3,4-dihydro-2H-spiro[isoquinoline-1,4′-piperidine]-2-yl)ethanone] the “μ and σ1 dual binding” value was “++”.
For `CC(=O)N1CCc2ccccc2C12CCN(CCOc1cccnc1)CC2` [Example 43, 1-(1′-(2-(pyridin-3-yloxy)ethyl)-3,4-dihydro-2H-spiro[isoquinoline-1,4′-piperidine]-2-yl)ethanone], the “μ and σ1 dual binding” value was “++”.
For `CC(=O)N1CCc2ccccc2C12CCN(CCOc1ccncc1)CC2` [Example 44, 1-(1′-(2-(pyridin-4-yloxy)ethyl)-3,4-dihydro-2H-spiro[isoquinoline-1,4′-piperidine]-2-yl)ethanone], the “μ and σ1 dual binding” value was “++”.
Work on `CS(=O)(=O)N1CCc2ccccc2C12CCN(CCc1ccccc1)CC2` [Example 53, 2-(Methylsulfonyl)-1′-phenethyl-3,4-dihydro-2H-spiro[isoquinoline-1,4′-piperidine]] yielded a Ki of less than 100 nM.
In the case of `CN1CCc2ccccc2C12CCN(CCc1ccccc1)CC2` [Example 54, 2-methyl-1′-phenethyl-3,4-dihydro-2H-spiro[isoquinoline-1,4′-piperidine]], the Ki is reported as less than 100 nM.
With `COc1ccc2c(c1)CCN(C)C21CCN(CCc2ccccc2)CC1` [Example 55, 6-methoxy-2-methyl-1′-phenethyl-3,4-dihydro-2H-spiro[isoquinoline-1,4′-piperidine]] the Ki was less than 100 nM.
For `CCN(CC)C(=O)CN1CCC2(CC1)c1ccccc1CCN2C` [Example 56, N,N-diethyl-2-(2-methyl-3,4-dihydro-2H-spiro[isoquinoline-1,4′-piperidine]-1′-yl)acetamide], the Ki was less than 500 nM.
`CN1CCc2ccccc2C12CCN(CC(=O)N1CCCOCC1)CC2` [Example 57, 2-(2-methyl-3,4-dihydro-2H-spiro[isoquinoline-1,4′-piperidine]-1′-yl)-1-(1,4-oxazepan-4-yl)ethanone] was tested, and the “μ and σ1 dual binding” value was “++”.
In the case of `CN1CCc2ccccc2C12CCN(CC(=O)N1CCC(F)CC1)CC2` [Example 58, 1-(4-fluoropiperidin-1-yl)-2-(2-methyl-3,4-dihydro-2H-spiro[isoquinoline-1,4′-piperidine]-1′-yl)ethanone], the Ki is reported as less than 500 nM.
In the case of `COC1CCN(C(=O)CN2CCC3(CC2)c2ccccc2CCN3C)CC1` [Example 60, 1-(4-methoxypiperidin-1-yl)-2-(2-methyl-3,4-dihydro-2H-spiro[isoquinoline-1,4′-piperidine]-1′-yl)ethanone], the “μ and σ1 dual binding” value is reported as “++”.
Compound `CN1CCc2ccccc2C12CCN(CC(=O)N1CCC(F)(F)CC1)CC2` [Example 61, 1-(4,4-difluoropiperidin-1-yl)-2-(2-methyl-3,4-dihydro-2H-spiro[isoquinoline-1,4′-piperidine]-1′-yl)ethanone] has a Ki of less than 500 nM.
Compound `CN1CCc2ccccc2C12CCN(CC(=O)N1CCC3(CC1)CC3)CC2` [Example 62, 2-(2-methyl-3,4-dihydro-2H-spiro[isoquinoline-1,4′-piperidine]-1′-yl)-1-(6-azaspiro[2.5]octan-6-yl)ethanone] has a Ki of less than 100 nM.
`CCN1CCc2ccccc2C12CCN(CCc1ccccc1)CC2` [Example 63, 2-Ethyl-1′-phenethyl-3,4-dihydro-2H-spiro[isoquinoline-1,4′-piperidine]] was tested, and the Ki was less than 100 nM.
`c1ccc(CCN2CCC3(CC2)c2ccccc2CCN3Cc2nccs2)cc1` [Example 64, 2-((1′-phenethyl-3,4-dihydro-2H-spiro[isoquinoline-1,4′-piperidine]-2-yl)methyl)thiazole] gave a Ki of less than 500 nM.
`CN1CCc2ccccc2C12CCN(CCN1CCOCC1)CC2` [Example 65, 4-(2-(2-Methyl-3,4-dihydro-2H-spiro[isoquinoline-1,4′-piperidine]-1′-yl)ethyl)morpholine] showed a Ki of less than 500 nM.
With `CN1CCc2ccccc2C12CCN(CC1CCCCC1)CC2` [Example 66, 1′-(cyclohexylmethyl)-2-methyl-3,4-dihydro-2H-spiro[isoquinoline-1,4′-piperidine]] the Ki was less than 500 nM.
With `CN1CCc2ccccc2C12CCN(CC1CCOCC1)CC2` [Example 67, 2-methyl-1′-((tetrahydro-2H-pyran-4-yl)methyl)-3,4-dihydro-2H-spiro[isoquinoline-1,4′-piperidine]] the “μ and σ1 dual binding” value was “++”.
Compound `CN(C)C(=O)CCN1CCC2(CC1)c1ccccc1CCN2C` [Example 68, N,N-dimethyl-3-(2-methyl-3,4-dihydro-2H-spiro[isoquinoline-1,4′-piperidine]-1′-yl)propanamide] has a Ki of less than 500 nM.

Same assay, conditions: combined class for Ki-μ ([3H]-DAMGO, CHO-K1 membranes) and Ki-σ1 ([3H](+)-pentazocine, HEK-293 membranes)
For `CC(=O)N1CCc2ccccc2C12CCN(CCN1CCCCC1)CC2` [Example 14, 1-(1′-(2-(piperidin-1-yl)ethyl)-3,4-dihydro-2H-spiro[isoquinoline-1,4′-piperidine]-2-yl)ethanone], the Ki was no less than 500 nM.
`CC(=O)N1CCc2ccccc2C12CCN(CCC(=O)N(C)C)CC2` [Example 22, 3-(2-acetyl-3,4-dihydro-2H-spiro[isoquinoline-1,4′-piperidine]-1′-yl)-N,N-dimethylpropanamide] was tested, and the Ki was no less than 500 nM.
`CC(=O)N1CCc2ccccc2C12CCN(CC1CC1)CC2` [Example 33, 1-(1′-(Cyclopropylmethyl)-3,4-dihydro-2H-spiro[isoquinoline-1,4′-piperidine]-2-yl)ethanone] gave a Ki of no less than 500 nM.
Compound `CC(=O)N1CCc2ccccc2C12CCN(CC(=O)N1CCOCC1)CC2` [Example 34, 2-(2-acetyl-3,4-dihydro-2H-spiro[isoquinoline-1,4′-piperidine]-1′-yl)-1-morpholinoethanone] has a Ki of no less than 500 nM.
`CC(=O)N1CCc2ccccc2C12CCN(CCNC(=O)OC(C)(C)C)CC2` [Example 37, tert-butyl 2-(2-acetyl-3,4-dihydro-2H-spiro[isoquinoline-1,4′-piperidine]-1′-yl)ethylcarbamate] showed a Ki of no less than 500 nM.
For `CC(=O)OC(CN1CCC2(CC1)c1ccccc1CCN2C(C)=O)c1ccccc1` (centres unmarked) [Example 39, 2-(2-Acetyl-3,4-dihydro-2H-spiro[isoquinoline-1,4′-piperidine]-1′-yl)-1-phenylethyl acetate], the Ki was no less than 500 nM.
`CC(=O)N1CCc2ccccc2C12CCN(CCO)CC2` [Example 41, 1-(1′-(2-Hydroxyethyl)-3,4-dihydro-2H-spiro[isoquinoline-1,4′-piperidine]-2-yl)ethanone] gave a Ki of no less than 500 nM.
For `CC(=O)N1CCc2ccccc2C12CCN(CCN(C)C(=O)OC(C)(C)C)CC2` [Example 46, tert-Butyl 2-(2-acetyl-3,4-dihydro-2H-spiro[isoquinoline-1,4′-piperidine]-1′-yl)ethyl(methyl)carbamate], the Ki was no less than 500 nM.
Work on `CNCCN1CCC2(CC1)c1ccccc1CCN2C(C)=O` [Example 47, 1-(1′-(2-(Methylamino)ethyl)-3,4-dihydro-2H-spiro[isoquinoline-1,4′-piperidine]-2-yl)ethanone] yielded a Ki of no less than 500 nM.
`CC(=O)Oc1ccc2c(c1)CCN(C(C)=O)C21CCN(CCc2ccccc2)CC1` [Example 49, 2-Acetyl-1′-phenethyl-3,4-dihydro-2H-spiro[isoquinoline-1,4′-piperidine]-6-yl acetate] was tested, and the Ki was no less than 500 nM.
`CN1CCc2ccccc2C12CCN(CC(=O)N1CCC(C(C)(C)O)CC1)CC2` [Example 59, 1-(4-(2-hydroxypropan-2-yl)piperidin-1-yl)-2-(2-methyl-3,4-dihydro-2H-spiro[isoquinoline-1,4′-piperidine]-1′-yl)ethanone] gave a Ki of no less than 500 nM.

Source: patent US10407428B2, “Spiro-isoquinoline-1,4′-piperidine compounds having multimodal activity against pain” (ESTEVE PHARMACEUTICALS, S.A., priority 2014, dated 2019)
